In patent US20240350430A1, “GROWTH INHIBITOR OF METASTATIC HUMAN PROSTATE CANCER CELLS” (Watanabe Oyster Laboratory Co., Ltd., priority 2021, published 2024):

What was measured:
Assay type in all cases: cell-based, human
PC-3 cells [1] = assay: Cell growth of PC-3 cells (cell counting); settings: three days; for cell growth in the presence of cell cycle inhibitor alone: roscovitine 10 or 100 nM, butyrate 10 or 100 μM, sulforaphane 1 or 10 nM
Method: (§1) The PC-3 and DU-145 cells (the cell number of 1×10^5/in 1 ml of a culture fluid per hole using a 24-hole plate) were cultured in a DMEM culture fluid (containing 10% of FBS, 1% of P/S, and 1% of fungizone) containing the DHMBA (1 and 10 μM) under 5% of CO2, at 37° C., for one, two, three, four, and six days. […] After the culture, 0.1 ml of 0.05% trypsin-EDTA solution obtained by dissolving the cells adhering to the bottom surface of the culture dish in PBS (Thermo Fisher Scientific, Waltham, MA, USA) not containing Ca^2+/Mg^2+ was added, incubation was performed at 37° C. for two minutes to release the adhering cells, and 0.9 ml of the DMEM culture fluid containing 10% of FBS and 1% of P/S was added to stop the reaction. The cell number in the cell suspension was counted by the method described in the item of “Measurement of Cell Number.”
(§2) After the culture of the cells, 0.1 ml of 0.05% trypsin-EDTA solution obtained by dissolving the cells adhering to the bottom surface of the culture dish in PBS (Thermo Fisher Scientific, Waltham, MA, USA) not containing Ca^2+/Mg^2+ was added, incubation was performed at 37° C. for two minutes to release the adhering cells, and 0.9 ml of the DMEM culture fluid containing 10% of FBS and 1% of P/S was added to stop the reaction. The visible cells were counted by the Olympus MTV-3 microscope using a hemocytometer (Sigma-Aldrich).
FIG. 1(C) is a diagram in which the PC-3 cells (1×10^5 cells/per well of a 24-well plate) were cultured under 5% of CO2, at 37° C., for one to six days in a DMEM culture fluid (containing 10% of FBS, 1% of P/S, and 1% of fungizone) containing the DHMBA (10 μM).
(§3) In FIGS. 1(D) and 1(E), the PC-3 cells (1×10^5 cells/per well of a 24-well plate) were cultured under 5% of CO2, at 37° C., for three (FIG. 1D) and six (FIG. 1E) days in a DMEM culture fluid (containing 10% of FBS, 1% of P/S, and 1% of fungizone) containing the DHMBA (0.01, 0.1, 1, 10, 100, and 1000 μM). After the culture, the cells adhered to the bottom surface of the dish were removed and counted. […] 1-way ANOVA, Tukey-Kramer post-test.
FIGS. 3(A) and 3(B) are diagrams in which the PC-3 cells (1×10^5 cells/ml/per well of a 24-well plate) were cultured under 5% of CO2, at 37° C., for three days in a DMEM culture fluid (containing 10% of FBS, 1% of P/S, and 1% of fungizone) containing the DHMBA (10 μM) containing cell cycle inhibitors, roscovitine (10 and 100 nM), butyrate (10 and 100 μM), and sulforaphane (1 and 10 nM).
After the culture, the cells adhered to the dish were removed and counted. […] 1-way ANOVA, Tukey-Kramer post-test.
In the drawing, the PC-3 cells (1×10^5/in 1 ml of a culture fluid per hole using a 24-hole plate) were cultured under 5% of CO2, at 37° C., for three days in a DMEM culture fluid (containing 10% of FBS, 1% of P/S, and 1% of fungizone) in the presence of the DHMBA (10 μM) and an aryl hydrocarbon receptor inhibitor CH223191 (1, 10, or 25 μM) to examine the action on cell growth.

PC-3 cells [2] = assay: Cell death of sub-confluent PC-3 cells (adherent cell counting)
Method: The PC-3 and DU-145 cells (1×10^5/in 1 ml of a culture fluid per hole using a 24-hole plate) were cultured in a DMEM culture fluid (containing 10% of FBS, 1% of P/S, and 1% of fungizone) under 5% of CO2, at 37° C., for three days, and when the cells reached sub-confluence, the culture fluid was exchanged for the one containing the DHMBA (0.01, 0.1, 1, 10, 100, or 1000 μM), and the cells were cultured for 24 and 48 hours. After the culture, the cells adhering to the bottom surface of the dish were removed and counted. In another experiment, after the culture for three days, when the cells reached sub-confluence, the culture fluid was exchanged for a culture fluid containing the DHMBA (1 or 10 μM) and a caspase-3 inhibitor (10 μM), and the cells were counted after the culture for 48 hours. Further, after the culture for three days, when the cells reached sub-confluence, the culture fluid was exchanged for a culture fluid obtained by adding gemcitabine (0.1, 1, 10, 50 or 100 nM) or CH223191 (1, 10, and 25 μM) to a DMEM culture fluid containing the DHMBA (1 or 10 μM) or not containing the DHMBA, and the cells were counted after the culture for 48 hours.
as §2
(§4) In the drawing, the PC-3 (FIGS. 5(A) and 5(B)) and DU-145 (FIGS. 5(D) and 5(E)) cells (1×10^5/in 1 ml of a culture fluid per hole using a 24-hole plate) were cultured under 5% of CO2, at 37° C., for three days in a DMEM culture fluid (containing 10% of FBS, 1% of P/S, and 1% of fungizone), and when the cells reached sub-confluence, the culture fluid was exchanged for the one containing the DHMBA (0.01, 0.1, 1, 10, 100, or 1000 μM), and the cells were cultured for 24 and 48 hours. In the drawing, after the culture, the cells adhering to the dish were counted.
In another experiment, after the culture for three days, when the cells reached sub-confluence, for the PC-3 (FIG. 5(C)) or DU-145 (FIG. 5(F)) cells, the culture fluid was exchanged for a culture fluid containing the DHMBA (1 or 10 μM) and a caspase-3 inhibitor (10 μM), and the cells were counted after the culture for 48 hours. Further, after the culture for three days, when the cells reached sub-confluence, the culture fluid was exchanged for a culture fluid obtained by adding gemcitabine (0.1, 1, 10, 50 or 100 nM) or CH223191 (1, 10, and 25 μM) to a DMEM culture fluid containing the DHMBA (1 or 10 μM) or not containing the DHMBA, and the cells were counted after the culture for 48 hours. After the culture, the cells adhered to the dish were removed and counted. Each piece of data is shown with a mean value and a standard deviation of values obtained from eight wells of the different cultured cells. *p<0.001, comparison with the control (gray bar). 1-way ANOVA, Tukey-Kramer post-test.
as §4, with “The” for “In the drawing, the”, “PC-3” for “PC-3 (FIGS. 5(A) and 5(B)) and DU-145 (FIGS. 5(D) and 5(E))”, “gemcitabine (1,” for “DHMBA (0.01, 0.1, 1,”, “10, 50,” for “10,”, “250 nM),” for “1000 μM),”, “for” for “for 24 and”
After the culture for three days, when the cells reached sub-confluence, the culture fluid was exchanged for a culture fluid containing the DHMBA (1 or 10 μM) and gemcitabine (1, 10, or 100 nM), and the cells were counted after the culture for 48 hours. […]

DU-145 cells = assay: Cell growth of DU-145 cells (cell counting); settings: three days, roscovitine 10 or 100 nM, butyrate 10 or 100 μM, sulforaphane 1 or 10 nM
Method: as §1, §2
FIG. 2(C) is a diagram in which the DU-145 cells (1×10^5 cells/per well of a 24-well plate) were cultured under 5% of CO2, at 37° C., for one to six days in a DMEM culture fluid (containing 10% of FBS, 1% of P/S, and 1% of fungizone) containing the DHMBA (10 μM).
as §3, with “2(D)” for “1(D)”, “2(E),” for “1(E),”, “DU-145” for “PC-3”, “2D)” for “1D)”, “2E)” for “1E)”, “the” for “the bottom surface of the”

Row | SMILES | cell growth in the presence of cell cycle inhibitor alone (PC-3 cells [1]) | cell growth in the presence of cell cycle inhibitor alone (DU-145 cells) | other results
1 | Cc1ccccc1N=Nc1ccc(NC(=O)c2ccnn2C)c(C)c1 [CH223191, 2-Methyl-2H-pyrazole-3-carboxylic acid (2-methyl-4-o-tolylazo-phenyl)-amide, reference compound] | – | – | action of CH223191 alone on cell growth (PC-3 cells [1]; CH223191 1, 10, or 25 μM): no significant effect; cell death induction by CH223191 alone (PC-3 cells [2]; sub-confluent, CH223191 1, 10, or 25 μM, 48 hours): did not cause the cell death induction
2 | C[S+]([O-])CCCCN=C=S (centres unmarked) [sulforaphane, reference compound] | inhibited | inhibited | –
3 | CC[C@H](CO)Nc1nc(NCc2ccccc2)c2ncn(C(C)C)c2n1 [roscovitine, reference compound] | inhibited | inhibited | –
4 | Nc1ccn([C@@H]2O[C@H](CO)[C@@H](O)C2(F)F)c(=O)n1 [gemcitabine, reference compound] | – | – | cell death by gemcitabine alone (PC-3 cells [2]; gemcitabine 1, 10, 50, 100, and 250 nM, three days as printed): significant cell deaths
5 | COc1cccc(-c2cc(=O)c3ccccc3o2)c1N [PD98059, reference compound] | – | – | cell growth in the presence of intracellular signaling inhibitor alone (PC-3 cells [1]; wortmannin 10 or 100 nM, PD98059 1 or 10 μM, staurosporine 1 or 10 nM): inhibited
